Data set [1] in a line: Stability Test-2: coloration of cream stored at 50° C. It is filed as physicochemical. To be noted: 10 panelists. A digest of the protocol: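 Creams were made by heating and mixing parts (a) and (b), cooling, then adding part (c), adjusting pH to 7 or 9. After storage at 50° C., ten panelists scored coloration against the freshly prepared cream: 3 for almost no change, 2 for color change, 1 for strong coloration.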

Data set [2] relates to Normal human dermal fibroblasts. Briefly: Collagen production promoting effect (ELISA of free collagen in supernatant). The note with it: 10 mM or less, 48 hours, control group set to 100%, N=3. It is filed as cell-based. The method, then:
Normal human dermal fibroblasts were prepared in D-MEM containing 5% (v/v) fetal bovine serum to a cell density of 2.5×10^4 cells/well, and then pre-incubated for 24 hours on a 96-well plate. After removing the medium, samples prepared to a predetermined concentration in D-MEM containing 5% (v/v) fetal bovine serum were added to each well and cultured for 48 hours. After the culture was completed, the amount of free collagen in the supernatant was quantified by ELISA. Measurements were performed in triplicate (N=3).
The amount of collagen produced when the sample was measured at a concentration of 10 mM or less was compared with that of the control group, and the results (% values when the control group was set to 100%) are shown in Table 17 based on the following criteria.
For orientation: In an ELISA, binding on a coated surface is turned into a signal by an enzyme label.

Data set [3] has as its system Normal human dermal fibroblasts (NHDF). Briefly: Hyaluronic acid production promoting effect (ELISA of hyaluronic acid in supernatant). The note with it: 10 mM or less, 48 hours, control group set to 100%, N=3. Type of data set: cell-based. The method, boiled down: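 NHDF seeded at 2.5×10^4 cells/well in D-MEM with 5% FBS, pre-incubated 24 h, then exposed to samples in serum-free D-MEM for 48 h. Supernatant hyaluronic acid measured by ELISA in triplicate, expressed as % of control (100%) at ≤10 mM sample.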

A short description of data set [4]: Stability Test-2: odor of cream stored at 50° C. It is filed as physicochemical. To be noted: 10 panelists. A digest of the protocol: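 Test creams were made by heating and mixing components (a) and (b), cooling, then adding component (c) to give a pH of 7 or 9. After storage at 50° C., 10 panelists scored odor: 3 almost odorless, 2 slight strange odor, 1 strong odor. Totals were graded ◯ (25 or more), Δ (16-24) or x (15 or less).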

The nature of data set [5]: Stability Test-2: residual rate in cream of pH 7 or 9 stored at 50° C. It is filed as physicochemical. The method, boiled down: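 Each test sample was formulated into a cream adjusted to pH 7 or 9: components (a) and (b) were heated and mixed separately, cooled, and then component (c) was added. The cream was held at 50° C., and the percentage of the sample compound still present (residual rate) was determined after storage.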

The test system of data set [6] is Normal human epidermal keratinocytes. Briefly: Antioxidant effect: ROS production inhibition rate (DCFHDA, H2O2). The note with it: 10 mM or less, 24 hours incubation, 0.2 mM H2O2, N=4. It is filed as cell-based. How it is done:
Normal human epidermal keratinocytes were seeded onto a 96-well plate using KG2 medium at a cell density of 2.0×10^4 cells/well. After 24 hours of pre-incubation, samples adjusted to a predetermined concentration in KG2 medium were added to each well. After 24 hours of incubation, the medium was removed, followed by washing with HBSS(−) and the incorporation of the ROS-reactive fluorescent probe DCFHDA for 30 minutes. The cells were again washed with HBSS(−), treated with 0.2 mM H2O2, and incubated for 2 hours. The fluorescence intensity was measured, and the amount of ROS produced per unit protein was calculated by dividing the fluorescence intensity by the amount of protein quantified by the BCA method, resulting in an analytical value of 1. Furthermore, the amount of ROS production calculated without adding the sample adjusted to a predetermined concentration using the above test method was set to analytical value 2; and the amount of ROS production calculated without adding the sample or 0.2 mM H2O2 was set to analytical value 3.
ROS production inhibition rate (%) was calculated using the following formula. The higher the ROS production inhibition rate, the greater the antioxidant effect can be evaluated to be.
The ROS production inhibition rate when the sample was measured at a concentration of 10 mM or less was evaluated as follows. Note that the measurement was performed in N=4.

[7] abbreviates: cream pH 7, 50° C., after 2 weeks, 20160 min.
[8] abbreviates: cream pH 7, 50° C., after 4 weeks, 40320 min.
Setting [9] is: cream pH 9, 50° C., after 2 weeks, 20160 min.
The mark [10] stands for this setting: cream pH 9, 50° C., after 4 weeks, 40320 min.

The results in this text go back to patent US20260294769A1, “ASCORBIC ACID DERIVATIVES AND COSMETIC THEREOF” (SEIWA KASEI COMPANY, LIMITED, priority 2023, published 2026).

The structures appear in SMILES notation.

For `CCCC(=O)OCC(OC(=O)CCC)C1OC(=O)C2=C1OCCCCO2` (stereo not shown) [Synthesis Example 10, 5,6-O-dibutanoyl-2,3-O-(1,4-butanediyl) ascorbic acid], the Coloration entry in data set [1] (after 2 weeks) and in data set [1] (after 4 weeks) was “◯ (Total score of 10 panelists is 25 or more)” throughout. Further, the Collagen production-promoting effect result in data set [2] is recorded as “++ (140%<)”. The “Hyaluronic acid production-promoting effect” value in data set [3] was “++ (120%<)”. In addition, the Odor entry in data set [4] (after 2 weeks) is on record as “◯ (Total score of 10 panelists is 25 or more)”; in data set [4] (after 4 weeks), “Δ (Total score of 10 panelists is 16-24)”. Moreover, the “Residual Rate” value in data set [5] (setting [7]), in data set [5] (setting [8]), in data set [5] (setting [9]) and in data set [5] (setting [10]) was “⊚ (95% or more)” throughout. Also, the “Antioxidant effect (ROS production inhibition rate)” value in data set [6] is recorded as “+ (<20%)”.

Regarding `CC(C)CCCCCCCCCCCCCCC(=O)OC[C@H](O)[C@H]1OC(=O)C2=C1OCCCCO2` [Synthesis Example 17, 6-O-isostearoyl-2,3-O-(1,4-butanediyl) ascorbic acid], the Coloration result in data set [1] (after 2 weeks) and in data set [1] (after 4 weeks) was “◯ (Total score of 10 panelists is 25 or more)” throughout. Further, the Collagen production-promoting effect entry in data set [2] is given as “++ (140%<)”. In data set [3], the “Hyaluronic acid production-promoting effect” value was “++ (120%<)”. Further, the Odor entry in data set [4] (after 2 weeks) is given as “◯ (Total score of 10 panelists is 25 or more)”; in data set [4] (after 4 weeks) it was “Δ (Total score of 10 panelists is 16-24)”. In addition, the “Residual Rate” value in data set [5] (setting [7]), in data set [5] (setting [8]), in data set [5] (setting [9]) and in data set [5] (setting [10]) was “⊚ (95% or more)” each time. The “Antioxidant effect (ROS production inhibition rate)” value in data set [6] was “+ (<20%)”.
